The values below come from US20240368120A1 (Terns Pharmaceuticals, Inc., priority 2023, published 2024).

Structures are written as SMILES.

In this experiment the target is T1, human GLP-1R receptor (Homo sapiens, UniProt P43220).
T1 construct: expressed in transfected cells
Description: GLP-1R low expression cell assay (cAMP TR-FRET, CHO-K1_hGLP-1Rlow_clone10 cells). Type of experiment: cell-based. To be noted: for EC50: cAMP TR-FRET, 30 min at 25° C.; for Emax / GLP-1R Low Expression Cell Assay Emax (%): maximum activation relative to control GLP-1 peptide agonist. The procedure:
Stable cell lines expressing high and low GLP-1R surface expression were generated in CHO-K1 cells transfected (Fugene 6) with a puromycin selectable DNA plasmid encoding human GLP-1R receptor (accession number: NM_002062.5) under control of an EF1A promoter. Transfected cells were seeded into 24-well plates (9,000 cells/well) containing complete medium and incubated in a humidified incubator at 37° C. with 5% carbon dioxide. After overnight incubation, medium was replaced with complete medium supplemented with puromycin (6 μg/mL) and refreshed every 2-3 days to select for stably transfected cells. Individual pools of selected cells were expanded prior to analysis for responsiveness to GLP-1 control peptide using a TR-FRET assay to detect cAMP (LANCE Ultra CAMP Assay, Perkin Elmer). Briefly, cells were collected in Versene solution, plated in 384-well plates (1,000 cells/well) and combined with serially diluted GLP-IR control peptide (10 nL) using an acoustic dispenser (ECHO). Plates were incubated for 30 minutes at 25° C. prior to the addition of EU-CAMP tracer (5 μL) and Ulight-anti-CAMP (5 μL) reagents to each well, followed by 15 minutes incubation at 25° C. TR-FRET signal was detected using an En Vision Multimode Plate Reader (excitation=320 nm; emission=615 and 655 nm). Dose-response curves were used to generate EC50 values as a measure of responsiveness to the GLP-IR control peptide. Selected cell lines were monitored for responsiveness over multiple passages to ensure stability. […] Briefly, GLP-IR expression was analyzed by flow cytometry using a fluorescein-labeled Exendin-4 peptide fluorescent probe (FLEX). Cells were harvested in Versene solution and washed 3-times with PBS+0.5% BSA before incubation with FLEX reagent (10 μM) for 2 hours at room temperature. After incubation, cells were washed 3-times in PBS+0.5% BSA before final resuspension in PBS prior to analysis by flow cytometry to measure FLEX mean fluorescence intensity (MFI) as a measure of GLP-IR expression on the cell surface.
For compound testing in the CHO-K1_hGLP-IRlow_clone10 cell line, cells were seeded in 384-well plates (1,000 cells/well). Test compounds were serially diluted in DMSO (10-point, 3-fold dilution), added to wells using an ECHO dispenser (10 nL/well) and plates were centrifuged for 1 min and agitated for 2 min at room temperature prior to 30-minute incubation at 25° C. After incubation, Eu-CAMP (5 μL) and Ulight-anti-cAMP (5 μL) reagents were added to each well, followed by centrifugation for 1 minute, agitation for 2 minutes at room temperature, and final incubation of the plates at 25° C. for 15 minutes. Plates were read using an EnVision microplate reader (excitation=320 nm; emission=615 and 655 nm). Dose-response curves were generated from duplicate wells based on percent activation calculated relative to a control GLP-1 peptide agonist that was run in parallel. EC50 values were determined by fitting percent activation as a function of compound concentration using the Hill equation (XLfit).
The compounds tested were compound samples prepared according to the General Procedures described in the Examples section.

T1 sequence (P43220 24-463): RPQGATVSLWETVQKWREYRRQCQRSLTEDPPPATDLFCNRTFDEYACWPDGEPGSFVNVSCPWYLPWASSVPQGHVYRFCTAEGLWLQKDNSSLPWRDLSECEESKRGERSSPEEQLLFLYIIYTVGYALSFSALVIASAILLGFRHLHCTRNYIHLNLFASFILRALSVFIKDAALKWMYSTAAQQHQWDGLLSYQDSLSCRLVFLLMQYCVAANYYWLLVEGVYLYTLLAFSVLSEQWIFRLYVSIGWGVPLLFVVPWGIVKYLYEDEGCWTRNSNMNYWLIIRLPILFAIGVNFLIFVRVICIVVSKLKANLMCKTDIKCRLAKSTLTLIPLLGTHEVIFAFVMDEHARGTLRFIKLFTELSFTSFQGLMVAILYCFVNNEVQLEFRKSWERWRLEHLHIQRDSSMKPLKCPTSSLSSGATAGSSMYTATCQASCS

For orientation: EC50 means the concentration giving half of the maximal effect. Lower therefore signals higher potency in that assay. A word on the Emax: it is the size of the effect at its maximum, as opposed to the concentration needed. On to `C[C@@H](Oc1ccccc1C1CCN(Cc2nc3c(OC(F)F)cc(C(=O)O)cc3n2C)CC1)c1ccc(C#N)cc1F` (single isomer, unassigned) [Compound 173], for which the EC50 was above 1000 nM and the maximal response (Emax) is below 25%.

`CC(Oc1ccccc1C1CCN(Cc2nc3c(OC(F)F)cc(C(=O)O)cc3n2C)CC1)c1ccc(C#N)cc1F` (single isomer, unassigned) [Compound 174] gave an EC50 above 1000 nM and a maximal effect (Emax) below 25%.

`Cn1c(CN2CCC(c3cccc4c3OC(c3ccc(Cl)cc3F)C=C4)CC2)nc2c(OC(F)F)cc(C(=O)O)cc21` (single isomer, unassigned) [Compound 175] registered an EC50 below 10 nM and a maximal response (Emax) above 85%.

For `CC(CF)Oc1cc(C(=O)O)cc2c1nc(CN1CCC(c3cccc(OCc4ccc(Cl)cc4F)n3)CC1)n2C` (single isomer, unassigned) [Compound 262], the EC50 lay in the range of 10 to 100 nM and the Emax is above 85%.

For `CC(CF)Oc1cc(C(=O)O)cc2c1nc(CN1CCC(c3cccc(OCc4ccc(Cl)cc4F)n3)CC1)n2C` (single isomer, unassigned) [Compound 263], the EC50 was below 10 nM and the “GLP-1R Low Expression Cell Assay Emax (%)” value is reported as “++++ (Emax is >85%)”.

In the case of `Cn1c(CN2CCC(c3cccc(OCc4ccc(Cl)cc4F)n3)CC2)nc2c(OC(F)CF)cc(C(=O)O)cc21` (single isomer, unassigned) [Compound 329], the EC50 is below 10 nM and the Emax was above 85%.

Regarding `Cn1c(CN2CCC(c3cccc(OCc4ccc(Cl)cc4F)n3)CC2)nc2c(OC(F)CF)cc(C(=O)O)cc21` (single isomer, unassigned) [Compound 330], the EC50 was 10 to 100 nM and the “GLP-1R Low Expression Cell Assay Emax (%)” value was “++++ (Emax is >85%)”.

In the case of `C[C@H](F)Oc1cc(C(=O)O)cc2c1nc(CN1CCC(c3cccc(OCc4ccc(Cl)cc4F)n3)CC1)n2C` (single isomer, unassigned) [Compound 360], the EC50 was below 10 nM and the Emax was above 85%.

With `C[C@@H](F)Oc1cc(C(=O)O)cc2c1nc(CN1CCC(c3cccc(OCc4ccc(Cl)cc4F)n3)CC1)n2C` (single isomer, unassigned) [Compound 361], the EC50 was 10 to 100 nM and the Emax is above 85%.

`COCCOc1cc(C(=O)O)cc2c1nc(CN1CCC(c3cccc4c3O[C@@](C)(c3ccc(Cl)cn3)O4)CC1)n2Cc1cncs1` [Compound 2, (S)-2-((4-(2-(5-Chloropyridin-2-yl)-2-methylbenzo[d][1,3]dioxol-4-yl)piperidin-1-yl)methyl)-4-(2-methoxyethoxy)-1-(thiazol-5-ylmethyl)-1H-benzo[d]imidazole-6-carboxylic acid] returned a concentration for a half-maximal effect (EC50) below 10 nM and an Emax above 85%.

In turn, `COCCOc1cc(C(=O)O)cc2c1nc(CN1CCC(c3cccc4c3O[C@](C)(c3ccc(Cl)cn3)O4)CC1)n2Cc1cncs1` [Compound 3, (R)-2-((4-(2-(5-Chloropyridin-2-yl)-2-methylbenzo[d][1,3]dioxol-4-yl)piperidin-1-yl)methyl)-4-(2-methoxyethoxy)-1-(thiazol-5-ylmethyl)-1H-benzo[d]imidazole-6-carboxylic acid] yielded a concentration for a half-maximal effect (EC50) of 100 to 1000 nM and an Emax above 85%.

Take `COCCOCCOCCOCCOCCOc1cc(C(=O)O)cc2c1nc(CN1CCC(c3cccc4c3O[C@@](C)(c3ccc(Cl)cn3)O4)CC1)n2Cc1cncs1` [Compound 4, (S)-4-((2,5,8,11,14-pentaoxahexadecan-16-yl)oxy)-2-((4-(2-(5-chloropyridin-2-yl)-2-methylbenzo[d][1,3]dioxol-4-yl)piperidin-1-yl)methyl)-1-(thiazol-5-ylmethyl)-1H-benzo[d]imidazole-6-carboxylic acid]: the EC50 is below 10 nM and the Emax was above 85%.

`COCCOCCOCCOCCOCCOc1cc(C(=O)O)cc2c1nc(CN1CCC(c3cccc4c3O[C@](C)(c3ccc(Cl)cn3)O4)CC1)n2Cc1cncs1` [Compound 5, (R)-4-((2,5,8,11,14-pentaoxahexadecan-16-yl)oxy)-2-((4-(2-(5-chloropyridin-2-yl)-2-methylbenzo[d][1,3]dioxol-4-yl)piperidin-1-yl)methyl)-1-(thiazol-5-ylmethyl)-1H-benzo[d]imidazole-6-carboxylic acid]: the EC50 was above 1000 nM and the maximum response (Emax) is below 25%.

For `CO/N=C/c1ccc(COc2cccc(C3CCN(Cc4nc5c(OC)cc(C(=O)O)cc5n4C[C@@H]4CCO4)CC3)n2)c(F)c1` [Compound 9, (S)-2-((4-(6-((2-Fluoro-4-((methoxyimino)methyl)benzyl)oxy)pyridin-2-yl)piperidin-1-yl)methyl)-4-methoxy-1-(oxetan-2-ylmethyl)-1H-benzo[d]imidazole-6-carboxylic acid], the half-maximal effective concentration (EC50) is below 10 nM and the Emax was above 85%.

`COCCOc1cc(C(=O)O)cc2c1nc(CN1CCC(c3cccc4c3O[C@@](C)(c3ccc(Cl)cn3)O4)CC1)n2C` [Compound 30, (S)-2-((4-(2-(5-Chloropyridin-2-yl)-2-methylbenzo[d][1,3]dioxol-4-yl)piperidin-1-yl)methyl)-4-(2-methoxyethoxy)-1-methyl-1H-benzo[d]imidazole-6-carboxylic acid]: the EC50 is below 10 nM.

As for `COc1cc(C(=O)O)cc2c1nc(CN1CCC(c3cccc4c3O[C@@](C)(c3ccc(Cl)cn3)O4)CC1)n2Cc1cncs1` [Compound 32, (S)-2-((4-(2-(5-Chloropyridin-2-yl)-2-methylbenzo[d][1,3]dioxol-4-yl)piperidin-1-yl)methyl)-4-methoxy-1-(thiazol-5-ylmethyl)-1H-benzo[d]imidazole-6-carboxylic acid], the EC50 is below 10 nM.

`CC(F)(F)c1cc(C(=O)O)cc2c1nc(CN1CCC(c3cccc4c3O[C@@](C)(c3ccc(Cl)cn3)O4)CC1)n2C[C@@H]1CCO1` [Compound 57, 2-((4-((S)-2-(5-Chloropyridin-2-yl)-2-methylbenzo[d][1,3]dioxol-4-yl)piperidin-1-yl)methyl)-4-(1,1-difluoroethyl)-1-(((S)-oxetan-2-yl)methyl)-1H-benzo[d]imidazole-6-carboxylic acid] gave an EC50 below 10 nM.

`COc1cc(C(=O)O)cc2c1nc(CN1CCC(c3cccc4c3O[C@@H](c3ccc(C#N)cc3F)CO4)CC1)n2Cc1cncs1` [Compound 63, (S)-2-((4-(3-(4-cyano-2-fluorophenyl)-2,3-dihydrobenzo[b][1,4]dioxin-5-yl)piperidin-1-yl)methyl)-4-methoxy-1-(thiazol-5-ylmethyl)-1H-benzo[d]imidazole-6-carboxylic acid] displayed an EC50 below 10 nM.

Consider `COCCOc1cc(C(=O)O)cc2[nH]c(CN3CCC(c4cccc5c4O[C@@](C)(c4ccc(Cl)cn4)O5)CC3)nc12` [Compound 74, (S)-2-((4-(2-(5-Chloropyridin-2-yl)-2-methylbenzo[d][1,3]dioxol-4-yl)piperidin-1-yl)methyl)-4-(2-methoxyethoxy)-1H-benzo[d]imidazole-6-carboxylic acid], for which the EC50 was 10 to 100 nM and the Emax is above 85%.

`C[C@]1(c2ccc(Cl)cn2)Oc2cccc(C3CCN(Cc4nc5cc(C(=O)O)cc6c5n4CCO6)CC3)c2O1` [Compound 75, (S)-2-((4-(2-(5-chloropyridin-2-yl)-2-methylbenzo[d][1,3]dioxol-4-yl)piperidin-1-yl)methyl)-3,4-dihydro-5-oxa-1,2a-diazaacenaphthylene-7-carboxylic acid] returned an EC50 above 1000 nM and a maximal response (Emax) below 25%.
